Calls of active or inactive are those of the source. No cut-off for these calls is given here.
Columns and labels:
Histone deacetylase = assay: Inhibition of human HDAC in HeLa cells; assay type: cell-based
Histone deacetylase 1 = Histone deacetylase 1 (Homo sapiens, UniProt Q13547); assay: Inhibition of human recombinant HDAC1 expressed in Hi5 cells; design: species or system BTI-TN-5B1-4
HCT-116 = assay: Antiproliferative activity against human HCT116 cells after 72 hrs by MTS assay; assay type: functional, cell-based; settings: HCT-116, 72 h
[1] = Lipophilicity, log D of the compound; settings: octanol/water
[2] = Clearance in Han Wistar rat at 5 umol/kg, iv; assay type: ADME, organism-based; settings: in vivo
[3] = Half life in Han Wistar rat at 5 umol/kg, iv; assay type: ADME, organism-based; settings: in vivo
[4] = Volume of distribution in steady state in Han Wistar rat at 5 umol/kg, iv; assay type: ADME, organism-based; settings: in vivo, read-out: Vdss
[5] = Unbound ligand in Han Wistar rat plasma at 10 umol/kg, po; assay type: ADME, organism-based
[6] = Unbound ligand in mouse plasma at 54.8 umol/kg, po; assay type: ADME, organism-based
[7] = Half life in Han Wistar rat at 10 umol/kg, po; assay type: ADME, organism-based; settings: in vivo
[8] = Half life in mouse at 54.8 umol/kg, po; assay type: ADME, organism-based; settings: in vivo
Cytochrome P450 3A4 = Cytochrome P450 3A4 (Homo sapiens, UniProt P08684)
Cytochrome P450 2D6 = Cytochrome P450 2D6 (Homo sapiens, UniProt P10635)
Cytochrome P450 2C9 = Cytochrome P450 2C9 (Homo sapiens, UniProt P11712)
Cytochrome P450 2C19 = Cytochrome P450 2C19 (Homo sapiens, UniProt P33261)
Homo sapiens = assay: Antitumor activity against human A549a xenografted mouse at 12.5 mg/kg, po for 18 days; assay type: functional, organism-based; design: dose 12.5 mg/kg
[9] = Clearance in Han Wistar rat at 2.5 umol/kg, iv; assay type: ADME, organism-based; settings: in vivo
[10] = Clearance in mouse at 5 umol/kg, iv; assay type: ADME, organism-based; settings: in vivo
[11] = Clearance in Beagle dog at 0.8 umol/kg, iv; assay type: ADME, organism-based, Canis lupus familiaris; settings: in vivo
[12] = Half life in Han Wistar rat at 2.5 umol/kg, iv; assay type: ADME, organism-based; settings: in vivo
[13] = Half life in mouse at 5 umol/kg, iv; assay type: ADME, organism-based; settings: in vivo
[14] = Half life in Beagle dog at 0.8 umol/kg, iv; assay type: ADME, organism-based, Canis lupus familiaris; settings: in vivo
[15] = Volume of distribution in steady state in Han Wistar rat at 2.5 umol/kg, iv; assay type: ADME, organism-based; settings: in vivo, read-out: Vdss
[16] = Volume of distribution in steady state in mouse at 5 umol/kg, iv; assay type: ADME, organism-based; settings: in vivo, read-out: Vdss
[17] = Volume of distribution in steady state in Beagle dog at 0.8 umol/kg, iv; assay type: ADME, organism-based, Canis lupus familiaris; settings: in vivo, read-out: Vdss
[18] = Half life in Han Wistar rat at 54.8 umol/kg, po; assay type: ADME, organism-based; settings: in vivo
[19] = Half life in Beagle dog at 3 umol/kg, po; assay type: ADME, organism-based, Canis lupus familiaris; settings: in vivo
[20] = Unbound ligand in Han Wistar rat plasma at 54.8 umol/kg, po; assay type: ADME, organism-based; settings: at 54.8 µmol/kg
[21] = Unbound ligand in Beagle dog plasma at 3 umol/kg, po; assay type: ADME, organism-based, Canis lupus familiaris; settings: at 3 µmol/kg
[22] = Half life in mouse at 70.9 umol/kg, po; assay type: ADME, organism-based; settings: in vivo
[23] = Solubility of the compound at pH 7.4; settings: buffer
[24] = Unbound ligand in Han Wistar rat plasma at 70.9 umol.kg, po; assay type: ADME, organism-based
[25] = Half life in Han Wistar rat at 70.9 umol/kg, po; assay type: ADME, organism-based; settings: in vivo

Chain of Cytochrome P450 3A4 (P08684 whole entry): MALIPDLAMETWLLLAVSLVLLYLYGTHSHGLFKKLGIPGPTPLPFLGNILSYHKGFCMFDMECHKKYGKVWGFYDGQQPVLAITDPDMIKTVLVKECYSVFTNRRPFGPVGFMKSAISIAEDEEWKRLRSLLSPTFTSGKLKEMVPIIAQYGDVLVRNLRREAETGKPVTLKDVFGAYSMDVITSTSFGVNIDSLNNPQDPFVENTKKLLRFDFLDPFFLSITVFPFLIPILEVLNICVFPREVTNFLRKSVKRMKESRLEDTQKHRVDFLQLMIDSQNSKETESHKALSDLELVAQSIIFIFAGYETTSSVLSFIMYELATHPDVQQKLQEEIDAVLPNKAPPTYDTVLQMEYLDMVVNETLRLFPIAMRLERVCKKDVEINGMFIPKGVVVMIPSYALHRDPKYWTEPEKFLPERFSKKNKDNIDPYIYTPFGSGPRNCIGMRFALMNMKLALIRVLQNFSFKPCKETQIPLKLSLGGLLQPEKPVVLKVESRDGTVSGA
Chain of Cytochrome P450 2D6 (P10635 whole entry): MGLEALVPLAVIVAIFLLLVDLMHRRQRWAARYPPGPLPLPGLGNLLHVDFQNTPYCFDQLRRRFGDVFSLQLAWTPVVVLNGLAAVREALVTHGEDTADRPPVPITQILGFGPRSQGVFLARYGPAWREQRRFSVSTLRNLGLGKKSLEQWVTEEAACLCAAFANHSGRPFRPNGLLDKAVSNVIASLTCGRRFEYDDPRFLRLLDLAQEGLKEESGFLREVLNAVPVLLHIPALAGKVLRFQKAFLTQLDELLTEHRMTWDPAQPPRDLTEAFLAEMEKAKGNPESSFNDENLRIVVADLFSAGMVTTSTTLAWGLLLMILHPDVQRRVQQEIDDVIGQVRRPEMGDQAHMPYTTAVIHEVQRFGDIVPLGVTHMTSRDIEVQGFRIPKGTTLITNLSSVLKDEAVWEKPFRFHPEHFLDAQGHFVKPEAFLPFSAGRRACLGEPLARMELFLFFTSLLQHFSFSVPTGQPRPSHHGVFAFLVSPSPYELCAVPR
Chain of Cytochrome P450 2C9 (P11712 whole entry): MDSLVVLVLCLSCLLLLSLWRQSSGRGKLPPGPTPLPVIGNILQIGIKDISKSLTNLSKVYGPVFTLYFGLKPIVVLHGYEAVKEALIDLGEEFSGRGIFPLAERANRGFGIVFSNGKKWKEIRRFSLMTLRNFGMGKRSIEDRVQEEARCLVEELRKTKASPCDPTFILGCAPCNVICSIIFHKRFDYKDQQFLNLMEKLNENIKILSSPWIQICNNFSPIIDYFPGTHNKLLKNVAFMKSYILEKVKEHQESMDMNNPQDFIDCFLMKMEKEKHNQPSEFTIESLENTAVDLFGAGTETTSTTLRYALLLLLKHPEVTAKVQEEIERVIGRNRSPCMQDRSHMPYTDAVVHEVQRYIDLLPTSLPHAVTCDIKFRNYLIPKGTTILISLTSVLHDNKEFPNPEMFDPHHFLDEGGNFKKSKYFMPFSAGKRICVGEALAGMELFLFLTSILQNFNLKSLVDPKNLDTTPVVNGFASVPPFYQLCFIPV
Chain of Histone deacetylase 1 (Q13547 whole entry): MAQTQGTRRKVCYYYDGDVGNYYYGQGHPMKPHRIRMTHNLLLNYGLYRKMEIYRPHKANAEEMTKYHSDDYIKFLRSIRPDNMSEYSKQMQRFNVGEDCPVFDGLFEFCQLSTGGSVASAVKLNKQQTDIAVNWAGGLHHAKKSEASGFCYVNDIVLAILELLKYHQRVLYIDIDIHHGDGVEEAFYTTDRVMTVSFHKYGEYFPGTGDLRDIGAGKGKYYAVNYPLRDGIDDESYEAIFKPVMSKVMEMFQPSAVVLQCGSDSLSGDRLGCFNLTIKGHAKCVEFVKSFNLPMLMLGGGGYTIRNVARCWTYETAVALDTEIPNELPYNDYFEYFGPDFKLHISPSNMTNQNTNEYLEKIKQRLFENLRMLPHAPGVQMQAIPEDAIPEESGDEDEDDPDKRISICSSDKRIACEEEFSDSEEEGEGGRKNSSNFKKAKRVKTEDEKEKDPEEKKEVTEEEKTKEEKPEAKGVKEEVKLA
Chain of Cytochrome P450 2C19 (P33261 whole entry): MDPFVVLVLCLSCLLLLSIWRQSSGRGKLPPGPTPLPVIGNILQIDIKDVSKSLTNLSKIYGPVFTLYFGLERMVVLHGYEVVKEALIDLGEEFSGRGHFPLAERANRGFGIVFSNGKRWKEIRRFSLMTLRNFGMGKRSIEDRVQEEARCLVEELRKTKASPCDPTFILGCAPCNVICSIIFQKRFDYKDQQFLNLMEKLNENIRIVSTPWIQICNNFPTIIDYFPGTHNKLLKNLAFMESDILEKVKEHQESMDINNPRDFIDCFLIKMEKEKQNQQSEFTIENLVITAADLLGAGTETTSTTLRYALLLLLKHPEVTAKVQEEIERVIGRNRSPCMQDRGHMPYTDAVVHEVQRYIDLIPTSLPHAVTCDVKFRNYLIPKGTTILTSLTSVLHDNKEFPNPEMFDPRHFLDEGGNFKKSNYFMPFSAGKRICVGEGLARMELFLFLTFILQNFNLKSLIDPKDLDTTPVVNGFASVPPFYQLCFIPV

Row | Structure (SMILES) | Log IC50 (Histone deacetylase) | IC50 (Histone deacetylase 1) [nM] | IC50 (HCT-116) [nM] | logD [1] | IC50 (Cytochrome P450 3A4) [nM] | IC50 (Cytochrome P450 2D6) [nM] | IC50 (Cytochrome P450 2C9) [nM] | IC50 (Cytochrome P450 2C19) [nM] | other results
1 | Nc1ccccc1NC(=O)c1ccc(-c2nccs2)cc1 | – | – | 1820 | – | – | – | – | – | –
2 | Nc1ccccc1NC(=O)c1ccc(N2CCOCC2)cc1 | -4.78 | – | 7410 | 1.2 | – | – | – | – | –
3 | Nc1ccccc1NC(=O)c1ccc(N2CCN(Cc3ccccc3)CC2)cc1 | -4.44 | – | 2340 | – | – | – | – | – | –
4 | CCNCc1cnc(-c2ccc(C(=O)Nc3ccccc3N)cc2)s1 | – | 38 | 204 | – | – | – | – | – | half-life [22]: 1.1 h; solubility [23]: > 500 µM; clearance [2]: 38 mL/min/kg; half-life [3]: 5.2 h; Vd [4]: 7.3 L/kg; fraction unbound [24]: 0.54; half-life [25]: 2.1 h
5 | CCCNCc1cnc(-c2ccc(C(=O)Nc3ccccc3N)cc2)s1 | – | 27.5 | 186 | – | – | – | – | – | solubility [23]: > 500 µM
6 | Nc1ccccc1NC(=O)c1ccc(-c2ncc(CN3CCCCC3)s2)cc1 | – | 21.9 | 145 | – | – | – | – | – | –

Continued, in another order:

Row | Log IC50 (Histone deacetylase) | IC50 (Histone deacetylase 1) [nM] | IC50 (HCT-116) [nM] | logD [1] | IC50 (Cytochrome P450 3A4) [nM] | IC50 (Cytochrome P450 2D6) [nM] | IC50 (Cytochrome P450 2C9) [nM] | IC50 (Cytochrome P450 2C19) [nM] | Structure (SMILES) | other results
7 | -5.23 | 138 | 832 | < 0.5 | – | – | – | – | CN1CCC(c2ccc(C(=O)Nc3ccccc3N)cc2)CC1 | –
8 | – | 85.1 | 479 | 1.53 | > 10000 | > 10000 | > 10000 | > 10000 | CN(C)C(=O)c1ccc(CN2CCC(c3ccc(C(=O)Nc4ccccc4N)cc3)CC2)cc1 | clearance [2]: 49 mL/min/kg; half-life [3]: 1.6 h; Vd [4]: 3.1 L/kg; fraction unbound [5]: 0.28; fraction unbound [6]: 0.4; half-life [7]: 2.1 h; half-life [8]: 3.8 h
9 | – | 57.5 | 417 | 2.31 | > 10000 | > 10000 | > 10000 | > 10000 | Nc1ccccc1NC(=O)c1ccc(C2CCN(Cc3ccc(C(=O)NC4CC4)cc3)CC2)cc1 | –
10 | – | 34.7 | 363 | – | – | – | – | – | CCNC(=O)c1ccc(CN2CCC(c3ccc(C(=O)Nc4ccccc4N)cc3)CC2)cc1 | Activity (Homo sapiens): Active; clearance [9]: 16 mL/min/kg; clearance [10]: 36 mL/min/kg; clearance [11]: 7 mL/min/kg; half-life [12]: 1.7 h; half-life [13]: 4.8 h; half-life [14]: 10.2 h; Vd [15]: 3.5 L/kg; Vd [16]: 5 L/kg; Vd [17]: 4.2 L/kg; half-life [18]: 3.7 h; half-life [19]: 7.2 h; fraction unbound [20]: 0.21; fraction unbound [21]: 0.33; half-life [8]: 3.2 h
11 | – | 30.9 | 437 | 1.99 | > 10000 | > 10000 | > 10000 | > 10000 | CNC(=O)c1ccc(CN2CCC(c3ccc(C(=O)Nc4ccccc4N)cc3)CC2)cc1 | –
12 | -4.57 | 44.7 | 437 | – | – | – | – | – | Nc1ccccc1NC(=O)c1ccc(C2CCN(Cc3ccccc3)CC2)cc1 | –
13 | – | 67.6 | 302 | 2.76 | 10000 | 10000 | 10000 | 10000 | Nc1ccccc1NC(=O)c1ccc(C2CCN(CCC(=O)Nc3ccccc3F)CC2)cc1 | –

— ChEMBL document CHEMBL1144842, “Design and campaign synthesis of piperidine- and thiazole-based histone deacetylase inhibitors” (Bioorg Med Chem Lett, 2008)
